Reference: patent US20050164993A1, “Methods of treating allergic reactions” (priority 2002, published 2005)
Read-outs that look alike come from different tables or passages of the source.

How the values were obtained:
[1] = tested on: BALB/c 3T3 (CCL-163) cells; assay: 3T3 Neutral Red uptake phototoxicity assay (with/without UVA)
Description: Streptomycin sulfate ([…]) and penicillin (100 IU/ml) were added to the medium after the cells were treated with test article in 96-well plates.
Serial dilutions of the tetracycline derivatives were prepared in DMSO at concentrations 100× to final testing concentration. The COL dilutions in DMSO were then diluted in Hanks' Balanced Salt Solution (HBSS) for application to the cells. The final DMSO concentration was 1% in treated and control cultures. A dose range finding assay is conducted with eight serial dilutions covering a range of 100-0.03 μg/ml in half log steps. Definitive assays are conducted with 6-8 serial dilutions prepared in quarter log steps, centered on the expected 50% toxicity point as determined in the dose range finding assay. One hundred 100 μg/ml was the highest dose recommended to prevent false negative results from UV absorption by the dosing solutions. One dose range finding and at least two definitive trials were performed on each tetracycline derivative and control compound.
Controls: Each assay included both negative (solvent) and positive controls. Twelve wells of negative control cultures were used on each 96-well plate. Chlorpromazine (Sigma Chemicals) was used as the positive control and was prepared and dosed like the test tetracycline derivatives.
Solar Simulator: A Dermalight SOL 3 solar simulator, equipped with a UVA H1 filter (320-400 nm), was adjusted to the appropriate height. Measurement of energy through the lid of a 96-well microtiter plate was carried out using a calibrated UV radiometer UVA sensor. Simulator height was adjusted to deliver 1.7±0.1 mW/cm^2 of UVA energy (resulting dose was 1 J/cm^2 per 10 minutes of exposure).
Phototoxicity Assay: Duplicate plates were prepared for each test material by seeding 10^4 3T3 cells per well in complete medium 24 hours before treatment. Prior to treatment, the medium was removed, and the cells washed once with 125 μl of prewarmed HBSS. Fifty μl of prewarmed HBSS were added to each well. Fifty μl of each test article dilution were added to the appropriate wells and the plates returned to the incubator for approximately one hour. Six wells were treated with each dose of test or control article on each plate. Following the 1 hr incubation, the plates designated for the photo irradiation were exposed (with the lid on) to 1.7±0.1 mW/cm^2 UVA light for 50±2 minutes at room temperature resulting in an irradiation dose of 5 J/cm^2. Duplicate plates, designated for the measurement of cytotoxicity without light, were kept in the dark room temperature for 50±2 minutes. After the 50 minute exposure period (with or without light) the test article dilutions were decanted from the plates and the cells washed once with 125 μl of HBSS. One hundred μl of medium were added to all wells and the cells incubated as above for 24±1 hours.
After 24 hours of incubation, the medium was decanted and 100 μl of the Neutral Red containing medium were added to each well. The plates were returned to the incubator and incubated for approximately 3 hours. After 3 hours, the medium was decanted and each well rinsed once with 250 μl of HBSS. The plates were blotted to remove the HBSS and 100 μl of Neutral Red Solvent were added to each well. After a minimum of 20 minutes of incubation at room temperature (with shaking), the absorbance at 550 nm was measured with a plate reader, using the mean of the blank outer wells as the reference. Relative survival was obtained by comparing the amount of neutral red taken by each well treated with the test article and positive control to the neutral red taken up by the average of the negative wells (12 wells) on the same plate. The amount of neutral red taken up by the negative control wells is considered to be 100% survival.

[2] = based on steady-state pharmacokinetics; cited from earlier work

| SMILES | PIF 1 (photoirritancy factor, earlier software) [1] | PIF 2 (photoirritancy factor, OECD Draft Guideline 432) [1] | other results |
| --- | --- | --- | --- |
| NC(=O)C1=C(O)C[C@@H]2C[C@@H]3Cc4cccc(O)c4C(=O)C3=C(O)[C@]2(O)C1=O [COL 3, 6-demethyl-6-deoxy-4-dedimethylaminotetracycline] | 647 | 84.72 |  |
| CC1c2cccc(O)c2C(=O)C2=C(O)C3(O)C(=O)C(C(N)=O)=C(O)CC3C(O)C21 (stereo not drawn) [COL 8, 4-dedimethylaminodoxycycline] | 165 | 82.61 |  |
| CN(C)c1ccc(O)c2c1CC1CC3CC(O)=C(C(N)=O)C(=O)C3(O)C(O)=C1C2=O (stereo not drawn) [COL 10, 4-dedimethylaminominocycline] |  | 2.04 |  |
| NC(=O)C1=C(O)CC2CC3Cc4c([N+](=O)[O-])ccc(O)c4C(=O)C3=C(O)C2(O)C1=O (stereo not drawn) [COL 302, 7-nitro-6-demethyl-6-deoxy-4-dedimethylaminotetracycline] | 23.16 | 23.32 |  |
| NC(=O)C1=C(O)CC2CC3Cc4ccc([N+](=O)[O-])c(O)c4C(=O)C3=C(O)C2(O)C1=O (stereo not drawn) [COL 303, 9-nitro-6-demethyl-6-deoxy-4-dedimethylaminotetracycline] | 5.27 | 13.82 |  |
| CN(C)c1ccc2c(c1O)C(=O)C1=C(O)C3(O)C(=O)C(C(N)=O)=C(O)CC3CC1C2 (stereo not drawn) [COL 306, 9-dimethylamino-6-demethyl-6-deoxy-4-dedimethylaminotetracycline] | 1.64 | 1.56 |  |
| NC(=O)C1=C(O)CC2CC3Cc4c(N)ccc(O)c4C(=O)C3=C(O)C2(O)C1=O (stereo not drawn) [COL 307, 7-amino-6-demethyl-6-deoxy-4-dedimethylaminotetracycline] | 1.17 |  |  |
| NC(=O)C1=C(O)CC2CC3Cc4ccc(N)c(O)c4C(=O)C3=C(O)C2(O)C1=O (stereo not drawn) [COL 308, 9-amino-6-demethyl-6-deoxy-4-dedimethylaminotetracycline] | 1.0 |  |  |
| CN(C)CC(=O)Nc1ccc2c(c1O)C(=O)C1=C(O)C3(O)C(=O)C(C(N)=O)=C(O)CC3CC1C2 (stereo not drawn) [COL 309, 9-dimethylaminoacetamido-6-demethyl-6-deoxy-4-dedimethylaminotetracycline] | 5.17 | 12.87 |  |
| CCCCCCCCCCCCCCCC(=O)Nc1ccc2c(c1O)C(=O)C1=C(O)C3(O)C(=O)C(C(N)=O)=C(O)CC3CC1C2 (stereo not drawn) [COL 311, 9-palmitamide-6-demethyl-6-deoxy-4-dedimethylaminotetracycline] | 1.0 |  |  |
| O=C(NCN1CCCC1)C1=C(O)CC2CC3Cc4cccc(O)c4C(=O)C3=C(O)C2(O)C1=O (stereo not drawn) [COL 312, 2-CONHCH2-pyrrolidin-1-yl-6-demethyl-6-deoxy-4-dedimethylaminotetracycline] | 62.67 | 75.11 |  |
| O=C(NCN1CCCCC1)C1=C(O)CC2CC3Cc4cccc(O)c4C(=O)C3=C(O)C2(O)C1=O (stereo not drawn) [COL 313, 2-CONHCH2-piperidin-1-yl-6-demethyl-6-deoxy-4-dedimethylaminotetracycline] | 80.27 | 58.22 |  |
| O=C(NCN1CCOCC1)C1=C(O)CC2CC3Cc4cccc(O)c4C(=O)C3=C(O)C2(O)C1=O (stereo not drawn) [COL 314, 2-CONHCH2-morpholin-1-yl-6-demethyl-6-deoxy-4-dedimethylaminotetracycline] | 41.1 | 89.48 |  |
| O=C(NCN1CCNCC1)C1=C(O)CC2CC3Cc4cccc(O)c4C(=O)C3=C(O)C2(O)C1=O (stereo not drawn) [COL 315, 2-CONHCH2-piperazin-1-yl-6-demethyl-6-deoxy-4-dedimethylaminotetracycline] | 15.8 | 35.30 |  |
| CC(=O)Nc1ccc2c(c1O)C(=O)C1=C(O)C3(O)C(=O)C(C(N)=O)=C(O)CC3C(O)C1C2C (stereo not drawn) [COL 801, 9-acetamido-4-dedimethylaminodoxycycline] | 1.0 |  |  |
| CC1c2ccc(NC(=O)CN(C)C)c(O)c2C(=O)C2=C(O)C3(O)C(=O)C(C(N)=O)=C(O)CC3C(O)C21 (stereo not drawn) [COL 802, 9-dimethylaminoacetamido-4-dedimethylaminodoxycycline] | 1.0 |  |  |
| CC1c2ccc([N+](=O)[O-])c(O)c2C(=O)C2=C(O)C3(O)C(=O)C(C(N)=O)=C(O)CC3C(O)C21 (stereo not drawn) [COL 804, 9-nitro-4-dedimethylaminodoxycycline] | 1.0 |  |  |
| CC1c2ccc(N)c(O)c2C(=O)C2=C(O)C3(O)C(=O)C(C(N)=O)=C(O)CC3C(O)C21 (stereo not drawn) [COL 805, 9-amino-4-dedimethylaminodoxycycline] | 1.0 |  |  |
| CC1c2cccc(O)c2C(=O)C2=C(O)C3(O)C(=O)C(C(=O)NCN4CCCC4)=C(O)CC3C(O)C21 (stereo not drawn) [COL 807, 2-CONHCH2-pyrrolidin-1-yl-4-dedimethylaminodoxycycline] | 40.4 |  |  |
| CC1c2cccc(O)c2C(=O)C2=C(O)C3(O)C(=O)C(C(=O)NCN4CCCCC4)=C(O)CC3C(O)C21 (stereo not drawn) [COL 808, 2-CONHCH2-piperidin-1-yl-4-dedimethylaminodoxycycline] | 46.45 |  |  |
| CN(C)c1cc([N+](=O)[O-])c(O)c2c1CC1CC3CC(O)=C(C(N)=O)C(=O)C3(O)C(O)=C1C2=O (stereo not drawn) [COL 1002, 9-nitro-4-dedimethylaminominocycline] |  | 1.35 |  |
| CN(C)CCCN1c2ccccc2Sc2ccc(Cl)cc21 [Chlorpromazine, reference compound] |  |  | PIF 2 (photoirritancy factor, OECD Draft Guideline 432) ([1]; mouse): 40.38 |
| C[C@H]1c2cccc(O)c2C(=O)C2=C(O)[C@]3(O)C(=O)C(C(N)=O)=C(O)[C@@H](N(C)C)[C@@H]3[C@@H](O)[C@@H]21 [Doxycycline, 6α-deoxy-5-hydroxytetracycline, reference compound] |  |  | PIF 1 (photoirritancy factor, earlier software) ([1]; mouse): 23.37; PIF 2 (photoirritancy factor, OECD Draft Guideline 432) ([1]; mouse): 26.71; plasma antibiotic threshold level [2]: 1.0 µg/mL |
| CN(C)c1ccc(O)c2c1C[C@H]1C[C@H]3[C@H](N(C)C)C(O)=C(C(N)=O)C(=O)[C@@]3(O)C(O)=C1C2=O [Minocycline, 7-dimethylaminotetracycline] |  |  | plasma antibiotic threshold level [2]: 0.8 µg/mL |
| CN(C)[C@@H]1C(=O)C(C(N)=O)=C(O)[C@@]2(O)C(=O)C3=C(O)c4c(O)cccc4[C@@](C)(O)[C@H]3C[C@@H]12 [Tetracycline, reference compound] |  |  | MPE (mean photo effect) ([1]; 3T3 cells, 5 J/cm^2 UVA vs dark, <0.1 nonphototoxin, 0.1 to <0.15 probable, >=0.15 clear phototoxin): 0.340; PIF 1 (photoirritancy factor, earlier software) ([1]; IC50(-UVA)/IC50(+UVA), 3T3 cells, >5 indicative of phototoxic potential): 5.38; plasma antibiotic threshold level [2]: 0.5 µg/mL |
